According to US20260374773A1, “MULTI-CYCLIC IRAK AND FLT3 INHIBITING COMPOUNDS AND USES THEREOF” (CHILDREN'S HOSPITAL MEDICAL CENTER, priority 2022, published 2026):

Each molecule was assayed on THP1 cells (assay: Combination drug screening with venetoclax, Cell Titer Glo, THP1). Details: compound 0-0.1 μM, venetoclax 0-20 μM, 10 × 10, 48 h, negative = synergy.
Assay type: cell-based
Procedure: Combination drug therapy has the potential to produce enhanced effects with lower side effects not obtained using either agent alone, or beyond the additive effect of the different concentrations of the two different agents. To determine whether enhanced effects are observed in different drug combinations, combination drug screening was performed as previously described (Mathews-Griner, L. A. et al., Proc. Nat. Acad. Sci., 2014, 111:2349-2354; Lin, G. L. et al., Sci. Trans. Med., 2019, 11: eaaw0064). Briefly, 10 nL of compounds were acoustically dispensed into 1536-well white polystyrene tissue culture-treated plates with an Echo 550 acoustic liquid handler (Labcyte). Cells were then added to compound-containing plates at a density of 500-cells/well in 5 μL of medium. A 10-point custom concentration range was used for all listed drugs in a 10×10 matrix. Plates were incubated for 48 hours at standard incubator conditions covered by a stainless steel gasketed lid to prevent evaporation. 48 hours post compound addition, 3 μL of Cell Titer Glo (Promega) were added to each well and plates were incubated at room temperature for 15 minutes with the stainless-steel lid in place. Luminescence readings were taken using a Viewlux imager (PerkinElmer) with a 2 second exposure time per plate.
Each compound was studied in combination with venetoclax at two concentration ranges of compound and venetoclax, respectively (for a total of 4 combination dose-response curves). The dose combinations that yielded the optimal synergy score, measured as excess HSA, which are reported in Tables 23 and 24 for the FLT3 mutant cell line MOLM14 (D835Y) and the FLT3 WT cell line THP1, respectively.
Table 24 provides combination outcomes for representative compounds with venetoclax in the Cell Titer Glo assay in THP1 (FLT3 wild type) cells at 48 hours. The table provides relative excess HSA values for compounds of the disclosure used in combination with venetoclax compared to gilteritinib hemifumarate used in combination with venetoclax. A negative excess HSA score illustrates that the drug combination is better than either drug alone, wherein greater synergy is observed at larger negative values of the excess HSA score.
Excess HSA is a measure of synergy vs. additivity or antagonism, wherein a negative excess HSA value is indicative of synergy. More information on excess HSA scores can be found in Vlot, Anna H. C. et al., Drug Discovery Today, 2019, 24(12):2286-2298. […] However, different methodologies may yield different numerical scores, and different definitions of what constitutes a deviation from mere additivity vs true drug synergy. The large negative excess HSA values provided in Tables 23 and 24 illustrate that multiple members of this structural class synergize with venetoclax. The degree to which combination therapy has to potential to produce enhanced effects with lower side effects not obtained using either agent alone, or beyond the additive effect of the different concentrations of the two different agents depends on the nature of the drugs used in the combination, and the specific doses/concentrations at which they are ultimately used in the therapeutic regimen. A negative excess HSA score illustrates that the drug combination is better than either drug alone (at the concentrations being studied). […] However, the utility in certain drug combinations vs. others should not be distinguished based on cutoffs between excess HSA scores, because the score itself is only a relative indicator that is completely dependent on experimental design and is not an absolute number. Furthermore, the concept of what constitutes clinically meaningful drug synergy is something that is still being debated, not only between pharmacologists and physicians, but amongst pharmacologists themselves. […]

First: COc1cn2ncc(-c3nc(N[C@@H]4CCCNC4)ccc3F)c2nc1C1CC1 [Compound 2, (R)-6-(5-cyclopropyl-6-methoxypyrazolo[1,5-a]pyrimidin-3-yl)-5-fluoro-N-(piperidin-3-yl)pyridin-2-amine]
Second: COc1cn2ncc(-c3nc(N[C@@H]4CCCNC4)ncc3F)c2nc1C1CC1 [Compound 14a, (R)-4-(5-cyclopropyl-6-methoxypyrazolo[1,5-a]pyrimidin-3-yl)-5-fluoro-N-(piperidin-3-yl)pyrimidin-2-amine]
The “Excess HSA” value of the first is higher: −990.8 for the first, −1210 for the second.

Same assay, conditions: compound 0-10 μM, venetoclax 0-2 μM, 10 × 10, 48 h, negative = synergy

First: COc1cn2ncc(-c3nc(N[C@H]4CNCC[C@@H]4F)ncc3F)c2nc1C(C)(C)O [Compound 6a, 2-(3-(5-fluoro-2-(((3S,4S)-4-fluoropiperidin-3-yl)amino)pyrimidin-4-yl)-6-methoxypyrazolo[1,5-a]pyrimidin-5-yl)propan-2-ol]
Second: COc1cn2ncc(-c3ccnc(N[C@H]4CNCC[C@@H]4F)n3)c2nc1C(C)(C)O [Compound 3a, 2-(3-(2-(((3S,4S)-4-fluoropiperidin-3-yl)amino)pyrimidin-4-yl)-6-methoxypyrazolo[1,5-a]pyrimidin-5-yl)propan-2-ol]
The “Excess HSA” value of the first is higher: −786.4 for the first, −1645 for the second.

First: COc1cn2ncc(-c3nc(N[C@H]4CNCC[C@@H]4F)c(F)cc3F)c2nc1C1CC1 [Compound 22, 6-(5-cyclopropyl-6-methoxypyrazolo[1,5-a]pyrimidin-3-yl)-3,5-difluoro-N-((3S,4S)-4-fluoropiperidin-3-yl)pyridin-2-amine]
Second: COc1cn2ncc(-c3nc(N[C@H]4CNCC[C@@H]4F)ncc3F)c2nc1C1CC1 [Compound 15a, 4-(5-cyclopropyl-6-methoxypyrazolo[1,5-a]pyrimidin-3-yl)-5-fluoro-N-((3S,4S)-4-fluoropiperidin-3-yl)pyrimidin-2-amine]
The “Excess HSA” value of the first is higher: −850.4 for the first, −861.1 for the second.

Same assay, conditions: compound 0-10 μM, venetoclax 0-20 μM, 10 × 10, 48 h, negative = synergy

Compared with `COc1cn2ncc(-c3cncc(N[C@H]4CNCC[C@@H]4F)n3)c2nc1C1CC1` [Compound 12a, 6-(5-cyclopropyl-6-methoxypyrazolo[1,5-a]pyrimidin-3-yl)-N-((3S,4S)-4-fluoropiperidin-3-yl)pyrazin-2-amine], `COc1cn2ncc(-c3ccnc(N[C@H]4CNCC[C@@H]4F)n3)c2nc1C1CC1` [Compound 7a, 4-(5-cyclopropyl-6-methoxypyrazolo[1,5-a]pyrimidin-3-yl)-N-((3S,4S)-4-fluoropiperidin-3-yl)pyrimidin-2-amine] is lower in “Excess HSA” value: −1869 for the first, −1947 for the second.

For `COc1cn2ncc(-c3nc(N[C@H]4CNC[C@@H]4F)c(F)cc3F)c2nc1C1CC1` [Compound 24, 6-(5-cyclopropyl-6-methoxypyrazolo[1,5-a]pyrimidin-3-yl)-3,5-difluoro-N-((3S,4S)-4-fluoropyrrolidin-3-yl)pyridin-2-amine], the “Excess HSA” value was −1766.
